The experiment has as its system P. falciparum 3D7 growth, pLDH absorbance. Kind of experiment: P. falciparum 3D7 growth inhibition, dose response, strain 3D7 (AID 2305).

pIC50: −log10 of the molar value.

As for `CN(c1ccc2c(c1)nc(Nc1ccc(Cl)cc1)n2C)c1ccnc(Nc2ccc(CS(C)(=O)=O)cc2)n1`, the pIC50 is 6.12. The figure for `CCOC(=O)CCCCOc1c(OC)cc(Cc2cnc(N)nc2N)cc1OC` is 7.52; for `C[C@@H](CC1CCCCC1)OC(=O)N(C)[C@@H]1CCN(C#N)C1` it is 6.21. As to `CNc1ccc(CNCc2cccc(-c3ccc(-c4nc5ccccc5[nH]4)s3)c2)cc1`, the pIC50 is 6.14.

The compound `CCCCN=C(N)c1ccc(OCCCCCOc2ccc(C(N)=NCCCC)cc2)cc1` gave a pIC50 of 6.96. As to `O=C(/C=C/c1ccc(Cl)c(Cl)c1)NCCCCCN1CCC(NC(=O)Nc2ccc(F)c(F)c2)CC1`, the pIC50 was 6.08. Take `CCCn1c(Sc2ccc(C#N)c([N+](=O)[O-])c2)nnc1-c1ccc(Cl)cc1`: the pIC50 was 6.27. `COc1ccc(COc2cc(NCCCN)nc3ccccc23)cc1` gave a pIC50 of 5.89. For `O=C(NC1CCCCN(Cc2ccccc2O)C1)c1ccc(Cl)c(Cl)c1` (stereo not drawn), the pIC50 is 6.12.

`CCCCOc1ccc(-c2nc3ccccc3[nH]2)cc1` gave a negative-log IC50 (pIC50) of 6.06. For `C/C=C1\CN2CC[C@H]1C[C@@H]2[C@@H](O)c1ccnc2ccc(O)cc12`, the pIC50 was 6.60. Regarding `CN1CCCc2ccc(NC(=O)Nc3ccc(-c4ccccc4)cc3)cc2C1`, the pIC50 is 6.42. The figure for `O=C(C=Cc1ccc(Cl)c(Cl)c1)NCCCCCN1CCC(CCNS(=O)(=O)c2ccc(F)cc2)CC1` is 5.96. The compound `CCNc1cc(C(=O)N[C@@H](Cc2ccccc2)[C@H](O)CNCCc2ccccc2)cc(N2CCCC2=O)c1` gave a pIC50 of 6.08. The figure for `O=C(Nc1ccccc1)c1cccc(Nc2nccc(Nc3ccc(Oc4ccccc4)cc3)n2)c1` is 5.81; for `COc1ccc2ccccc2c1C=NNc1cc(C)nc2c(C)cccc12` it is 6.09. The figure for `O=C(N[C@@H](CC1CCCCC1)C(=O)NCc1cccc2ccccc12)c1ccc(O)c(-c2ccc(Cl)c(Cl)c2)c1` is 6.66. `Clc1ccccc1C=NNc1ccnc2ccccc12` gave a pIC50 of 6.07. Turning to `CN(C)CCOc1cc(NC(=O)Nc2ccc(-c3ccccc3)cc2)ccc1I`, the pIC50 was 6.22. Turning to `COc1ccc2nc3cc(Cl)ccc3c(NCCO)c2c1`, the pIC50 is 6.10. To `CN(Cc1cccc(C#N)c1)C1CCN(c2cc(NC(=O)c3ccc(F)cc3)ccn2)CC1` belongs 5.97; to `CCN(CC)c1ccc2nc(N)nc(N)c2c1Cl`, 7.52; to `CN1CCN(c2ccc(Nc3ncc(Cl)c(Nc4cccnc4C(N)=O)n3)cc2)CC1`, 6.82.

In turn, `COc1ccc(CNC(=O)C2Cc3ccccc3CN2Cc2ccc3ccccc3c2)cc1` (stereo not drawn) showed a pIC50 of 5.96. With `CCCCCCN1CCC(NCc2ccc(CN(C)C)cc2)CC1`, the pIC50 is 5.90. To `Cc1cc(N[C@@H](Cc2ccccc2)C(=O)NCc2cccc(F)c2)nc(NCCCOC(C)C)n1` belongs 6.04. Compound `Cc1ccc(Cc2cccc3nc(N)nc(N)c23)cc1` had a pIC50 of 5.94. On to `CC[C@H]1CN2CC[C@H]1C[C@H]2[C@H](O)c1cc(-c2ccc(C)cc2)nc2ccc(OC)cc12`, for which the pIC50 was 6.96.

The compound `CC(C)NCc1cccc(-c2cccc(-c3nc4ccccc4[nH]3)c2)c1` showed a negative logarithm of the IC50 (pIC50) of 6.10. In the case of `CCCCCCC1(C)N=C(N)N=C(N)C1c1ccc(Cl)c(Cl)c1` (stereo not drawn), the pIC50 is 6.89. `CNc1c2c(nc3ccc(NC(=O)CCCCCCc4ccccc4)cc13)CCCC2` gave a pIC50 of 6.04. To `CC(C)(C)c1ccc(CN2CCCCC(NC(=O)c3cc(-c4cccc(Cl)c4)cs3)C2)cc1` (stereo not drawn) belongs 6.00; to `COc1cc2nc(N3CCC(CNC(=O)c4ccc(-c5cccc(C#N)c5)cc4)CC3)nc(N)c2cc1OC`, 6.85. In the case of `CN(C)CCCNc1ccnc2cc(Cl)ccc12`, the pIC50 was 6.55. In turn, `CC1CN=C(Nc2ncc(Cl)cc2Cl)N1` (stereo not drawn) showed a pIC50 of 6.62. The figure for `COc1ccc2nccc([C@@H](O)CN3CCC(NCc4ccc5c(c4)NC(=O)CO5)CC3)c2c1` is 5.78. `O=C(Cc1cccc(OCCCN(Cc2cccc(C(F)(F)F)c2Cl)CC(c2ccccc2)c2ccccc2)c1)NCc1ccco1` gave a negative-log IC50 (pIC50) of 6.03. The compound `COc1ccc(Nc2nc(NN=Cc3cc(Br)c(O)cc3O)nc(Nc3ccc([N+](=O)[O-])cc3)n2)cc1` gave a negative logarithm of the IC50 (pIC50) of 6.05.

In turn, `COC(=O)c1ccc(OCC(C)NCC(O)c2cccc(C(F)(F)F)c2)cc1` (stereo not drawn) showed a pIC50 of 6.08.

As to `CCOC(=O)/C(=N\OC(C)(C)C(=O)NCc1ccc(O)c(O)c1)c1csc(NC(c2ccccc2)(c2ccccc2)c2ccccc2)n1`, the pIC50 is 6.77.

Regarding `Cc1cc(-c2ccc(NC(=O)Nc3ccc4nccc(N5CCN(C)CC5)c4c3)cc2C)cc(C)n1`, the pIC50 was 6.82.

`COc1cc2c(Nc3ccc(NC(=O)c4ccccc4)cc3)ncnc2cc1OCCCN1CCOCC1` showed a pIC50 of 6.19. The figure for `CC(C)(C)c1ccc(C(=O)N2CCC3(CC2)C(=O)N(CC(=O)NCC2CCCO2)CN3c2ccccc2)cc1` (stereo not drawn) is 6.64; for `CN(N=Cc1ccccc1)C(N)=NCCCC#Cc1cccc(CN2CCCC2)c1` it is 5.75; for `COc1cc(-n2cnc3cc(-c4ccc([N+](=O)[O-])cc4)sc3c2=O)ccc1OCCN1CCCC1` it is 6.11.

`O=C(COc1cnc2ccccc2n1)Nc1ccccc1Sc1ccc(Cl)cc1` showed a pIC50 of 6.14. `C[C@H](Cc1ccc(Oc2ccc(C[C@@H](C)NC[C@H](O)c3cccc(Cl)c3)cc2)cc1)NC[C@H](O)c1cccc(Cl)c1` showed a pIC50 of 6.25. With `COc1ccc(-c2nnc(Sc3ccc(C#N)c([N+](=O)[O-])c3)n2CC(C)C)cc1`, the pIC50 was 6.09.

Take `Cc1nnsc1C(=O)Nc1cccc(-c2ccc(-c3nc4ccc(F)cc4[nH]3)cc2)c1`: the pIC50 was 7.00.

Take `Cc1cc(NN=Cc2ccccc2Cl)c2cccc(C)c2n1`: the negative logarithm of the IC50 (pIC50) was 6.15. In the case of `CC(Oc1ccc(Cl)cc1)C(=O)Nc1cc(C(F)(F)F)ccc1-n1cncn1` (stereo not drawn), the pIC50 was 6.82. As to `COc1cccc(-c2cc(C(F)(F)F)n3ncc(C(=O)Nc4cc(C)ccc4O)c3n2)c1`, the pIC50 was 6.80. The compound `COc1c(C2CCN(CCCCNC(=O)c3ccc(-c4ccc(C#N)cc4)cc3)CC2)cc(Cl)c2c1CCCC2` showed a pIC50 of 6.11. The figure for `CC(C)C(=O)ONC1=NC(C)(C)N(OCCCOc2cc(Cl)c(Cl)cc2Cl)C(NOC(=O)C(C)C)=N1` is 7.52; for `COc1ccc(Nc2nccc(N3CCC(NC(=O)Nc4cc(C)ccc4C)C3)n2)cc1` (stereo not drawn) it is 6.05. `O=C(C=Cc1ccccc1O)N1CCC(CN2CCC(c3c[nH]c4ccccc34)CC2)CC1` gave a pIC50 of 6.02. `CCCCCC(C)N=C(Nc1ccc([N+](=O)[O-])cc1O)Nc1ccccc1Br` (stereo not drawn) showed a pIC50 of 6.21. The figure for `CCc1ccc(CN2CCC(NC(=O)c3ccc(-c4ccc(N(C)C)cc4)s3)CC2)cc1` is 5.92; for `CCCN(CCC)CCCN(CCCN(CCC)CCC)c1cc(C)nc(Nc2ccc3cc(Br)ccc3c2)n1` it is 6.68. `COc1ccc2nccc([C@@H](O)CN3CCC(NC(=O)C(c4cc5ccccc5o4)N4CCN(c5ccccc5)CC4)CC3)c2c1` (stereo partly drawn) gave a pIC50 of 6.62. The figure for `CC1CC(NCCCNc2cc(=O)c3ccccc3[nH]2)c2cc(Cl)c(Cl)c(Cl)c21` (stereo not drawn) is 6.14; for `CCN1CCC(N2CCC(n3c(C)nc4cc(C(F)(F)F)ccc43)CC2)CC1` it is 5.99. `O=C1[C@H]2C(c3ccc(Cl)c(Cl)c3)N3CC(OCc4ccccc4)CC3(C(=O)O)[C@H]2C(=O)N1c1ccc(Br)cc1` (stereo partly drawn): the pIC50 is 6.47.

Values taken from PubChem BioAssay AID2305 (GlaxoSmithKline (GSK), 2010).
